From publication PMC4365270 (Cancer Chemotherapy and Pharmacology, 2015)
“Also recorded” adds a separate entry of the source.

Key:
cIAP-1 = biological target: T1, cIAP-1 (Homo sapiens, UniProt Q13490); experiment: cIAP1 degradation in PBMCs, Western blot; assay type: in vivo
T1 construct: endogenous in cells; host or cells: peripheral blood mononuclear cells (PBMCs) of patients
Description: Pharmacokinetic samples were taken from all patients on day 1 (predose, 0.5, 1, 2, 3, 4, 6, 8, 12, 18 h postdose) and on day 5 (predose, 0.5, 1, 2, 3, 4, 6, 8 h postdose) of the first cycle. In addition, for exploratory PD analysis of IAP inhibition and activation of apoptosis, optional skin and tumor biopsies were taken from consenting patients on days 1 (predose) and 5 and blood samples on day 1 (predose, 1, 3, 6, 8, 12 h postdose), day 2 (predose), and day 5 (3 h postdose).
cIAP-1 levels were measured in tumor tissue and surrogate tissue as available. Peripheral blood mononuclear cells (PBMCs) were analyzed for DEBIO1143-induced cIAP-1 degradation. Plasma native cytokeratin-18 (M65) or caspase-3 generated cytokeratin-18 fragments (M30), interleukin 8 (IL8), chemokine ligand 2 (CCL2, MCP1), and tumor necrosis factor α (TNFα) were measured by ELISA as markers of epithelial cell death and inflammation on days 1 (predose, 1, 3, 6, and 12 h postdose), 2, and 5.
For the detection of cIAP-1 in paraffin-embedded human tissue, a validated immunohistochemical (IHC) assay was used. DEBIO1143-induced cIAP-1 degradation was measured in PBMCs using Western blot. Plasma biomarkers were measured through commercial ELISAs. All laboratory analyses were performed by MPI Research, Inc. (PK) and Mosaic Laboratory, LLC (PD).

[1] = dogs; cited from earlier work
[2] = parameters: method as in PMID 23813446; settings: mice; cited from earlier work
xenograft tumors = settings: cited from earlier work
[3] = system: multiple mouse cancer models; settings: cited from earlier work

T1 sequence (Q13490 whole entry): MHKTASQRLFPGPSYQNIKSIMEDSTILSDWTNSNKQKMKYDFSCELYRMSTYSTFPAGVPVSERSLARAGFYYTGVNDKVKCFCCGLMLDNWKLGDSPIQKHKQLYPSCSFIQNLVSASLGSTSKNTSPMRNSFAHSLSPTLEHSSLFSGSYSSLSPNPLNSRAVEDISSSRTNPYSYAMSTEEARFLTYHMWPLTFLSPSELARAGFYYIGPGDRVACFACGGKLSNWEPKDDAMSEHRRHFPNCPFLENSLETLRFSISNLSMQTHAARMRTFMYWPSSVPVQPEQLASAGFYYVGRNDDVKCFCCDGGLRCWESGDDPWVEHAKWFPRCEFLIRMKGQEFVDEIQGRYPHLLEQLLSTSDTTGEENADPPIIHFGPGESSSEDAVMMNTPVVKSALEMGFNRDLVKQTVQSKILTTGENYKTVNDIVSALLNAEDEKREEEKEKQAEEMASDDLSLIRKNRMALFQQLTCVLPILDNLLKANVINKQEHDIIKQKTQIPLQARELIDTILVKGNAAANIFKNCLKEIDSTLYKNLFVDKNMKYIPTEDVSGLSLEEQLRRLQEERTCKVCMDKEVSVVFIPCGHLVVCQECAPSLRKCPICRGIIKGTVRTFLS

CN[C@@H](C)C(=O)N[C@H]1CN(C(=O)CC(C)C)CC[C@H]2CC[C@@H](C(=O)NC(c3ccccc3)c3ccccc3)N2C1=O [DEBIO1143]
cIAP1/Actin in PBMC, mean (SD) (cIAP-1; 120 mg, 1h, N=1): 2% (0) % from baseline | cIAP1/Actin in PBMC, median (range) (cIAP-1; 120 mg, 1h, N=1): 2 (2-2) % from baseline | cIAP1/Actin in PBMC, mean (SD) (cIAP-1; 120 mg, 3h, N=1): 2% (0) % from baseline | cIAP1/Actin in PBMC, median (range) (cIAP-1; 120 mg, 3h, N=1): 2 (2-2) % from baseline | cIAP1/Actin in PBMC, mean (SD) (cIAP-1; 120 mg, 6h, N=1): 4% (0) % from baseline | cIAP1/Actin in PBMC, median (range) (cIAP-1; 120 mg, 6h, N=1): 4 (4-4) % from baseline | cIAP1/Actin in PBMC, mean (SD) (cIAP-1; 120 mg, 12h, N=1): 3% (0) % from baseline | cIAP1/Actin in PBMC, median (range) (cIAP-1; 120 mg, 12h, N=1): 3 (3-3) % from baseline | cIAP1/Actin in PBMC, mean (SD) (cIAP-1; 120 mg, 24h, N=1): 4% (0) % from baseline | cIAP1/Actin in PBMC, median (range) (cIAP-1; 120 mg, 24h, N=1): 4 (4-4) % from baseline | cIAP1/Actin in PBMC, mean (SD) (cIAP-1; 120 mg, 99h, N=1): 5% (0) % from baseline | cIAP1/Actin in PBMC, median (range) (cIAP-1; 120 mg, 99h, N=1): 5 (5-5) % from baseline | cIAP1/Actin in PBMC, mean (SD) (cIAP-1; 180 mg, 1h, N=6): 34% (31) % from baseline | cIAP1/Actin in PBMC, median (range) (cIAP-1; 180 mg, 1h, N=6): 33 (0-78) % from baseline | cIAP1/Actin in PBMC, mean (SD) (cIAP-1; 180 mg, 3h, N=6): 20% (25) % from baseline | cIAP1/Actin in PBMC, median (range) (cIAP-1; 180 mg, 3h, N=6): 12 (3-68) % from baseline | cIAP1/Actin in PBMC, mean (SD) (cIAP-1; 180 mg, 6h, N=7): 6% (8) % from baseline | cIAP1/Actin in PBMC, median (range) (cIAP-1; 180 mg, 6h, N=7): 5 (0-24) % from baseline | cIAP1/Actin in PBMC, mean (SD) (cIAP-1; 180 mg, 12h, N=3): 8% (7) % from baseline | cIAP1/Actin in PBMC, median (range) (cIAP-1; 180 mg, 12h, N=3): 5 (4-16) % from baseline | cIAP1/Actin in PBMC, mean (SD) (cIAP-1; 180 mg, 24h, N=6): 9% (10) % from baseline | cIAP1/Actin in PBMC, median (range) (cIAP-1; 180 mg, 24h, N=6): 5 (3-29) % from baseline | cIAP1/Actin in PBMC, mean (SD) (cIAP-1; 180 mg, 99h, N=6): 2% (2) % from baseline | cIAP1/Actin in PBMC, median (range) (cIAP-1; 180 mg, 99h, N=6): 0 (0-5) % from baseline | cIAP1/Actin in PBMC, mean (SD) (cIAP-1; 260 mg, 1h, N=3): 39% (33) % from baseline | cIAP1/Actin in PBMC, median (range) (cIAP-1; 260 mg, 1h, N=3): 44 (4-70) % from baseline | cIAP1/Actin in PBMC, mean (SD) (cIAP-1; 260 mg, 3h, N=3): 45% (50) % from baseline | cIAP1/Actin in PBMC, median (range) (cIAP-1; 260 mg, 3h, N=3): 24 (9-103) % from baseline | cIAP1/Actin in PBMC, mean (SD) (cIAP-1; 260 mg, 6h, N=3): 9% (4) % from baseline | cIAP1/Actin in PBMC, median (range) (cIAP-1; 260 mg, 6h, N=3): 8 (5-13) % from baseline | cIAP1/Actin in PBMC, mean (SD) (cIAP-1; 260 mg, 12h, N=2): 14% (5) % from baseline | cIAP1/Actin in PBMC, median (range) (cIAP-1; 260 mg, 12h, N=2): 14 (10-17) % from baseline | cIAP1/Actin in PBMC, mean (SD) (cIAP-1; 260 mg, 24h, N=3): 9% (7) % from baseline | cIAP1/Actin in PBMC, median (range) (cIAP-1; 260 mg, 24h, N=3): 6 (5-16) % from baseline | cIAP1/Actin in PBMC, mean (SD) (cIAP-1; 260 mg, 99h, N=3): 6% (3) % from baseline | cIAP1/Actin in PBMC, median (range) (cIAP-1; 260 mg, 99h, N=3): 6 (3-8) % from baseline | cIAP1/Actin in PBMC, mean (SD) (cIAP-1; 400 mg, 1h, N=1): 14% (0) % from baseline | cIAP1/Actin in PBMC, median (range) (cIAP-1; 400 mg, 1h, N=1): 14 (14-14) % from baseline | cIAP1/Actin in PBMC, mean (SD) (cIAP-1; 400 mg, 3h, N=2): 4% (2) % from baseline | cIAP1/Actin in PBMC, median (range) (cIAP-1; 400 mg, 3h, N=2): 4 (3-6) % from baseline | cIAP1/Actin in PBMC, mean (SD) (cIAP-1; 400 mg, 6h, N=2): 6% (4) % from baseline | cIAP1/Actin in PBMC, median (range) (cIAP-1; 400 mg, 6h, N=2): 6 (2-9) % from baseline | cIAP1/Actin in PBMC, mean (SD) (cIAP-1; 400 mg, 24h, N=2): 19% (26) % from baseline | cIAP1/Actin in PBMC, median (range) (cIAP-1; 400 mg, 24h, N=2): 19 (0-37) % from baseline | cIAP1/Actin in PBMC, mean (SD) (cIAP-1; 400 mg, 99h, N=2): 28% (31) % from baseline | cIAP1/Actin in PBMC, median (range) (cIAP-1; 400 mg, 99h, N=2): 28 (6-51) % from baseline | cIAP1/Actin in PBMC, mean (SD) (cIAP-1; 600 mg, 1h, N=3): 27% (9) % from baseline | cIAP1/Actin in PBMC, median (range) (cIAP-1; 600 mg, 1h, N=3): 25 (20-38) % from baseline | cIAP1/Actin in PBMC, mean (SD) (cIAP-1; 600 mg, 3h, N=3): 24% (11) % from baseline | cIAP1/Actin in PBMC, median (range) (cIAP-1; 600 mg, 3h, N=3): 18 (17-36) % from baseline | cIAP1/Actin in PBMC, mean (SD) (cIAP-1; 600 mg, 6h, N=3): 20% (11) % from baseline | cIAP1/Actin in PBMC, median (range) (cIAP-1; 600 mg, 6h, N=3): 17 (11-33) % from baseline | cIAP1/Actin in PBMC, mean (SD) (cIAP-1; 600 mg, 12h, N=1): 36% (0) % from baseline | cIAP1/Actin in PBMC, median (range) (cIAP-1; 600 mg, 12h, N=1): 36 (36-36) % from baseline | cIAP1/Actin in PBMC, mean (SD) (cIAP-1; 600 mg, 24h, N=3): 29% (36) % from baseline | cIAP1/Actin in PBMC, median (range) (cIAP-1; 600 mg, 24h, N=3): 14 (3-70) % from baseline | cIAP1/Actin in PBMC, mean (SD) (cIAP-1; 600 mg, 99h, N=2): 14% (19) % from baseline | cIAP1/Actin in PBMC, median (range) (cIAP-1; 600 mg, 99h, N=2): 14 (0-28) % from baseline | cIAP1/Actin in PBMC, mean (SD) (cIAP-1; 900 mg, 1h, N=5): 11% (8) % from baseline | cIAP1/Actin in PBMC, median (range) (cIAP-1; 900 mg, 1h, N=5): 9 (2-24) % from baseline | cIAP1/Actin in PBMC, mean (SD) (cIAP-1; 900 mg, 3h, N=4): 15% (23) % from baseline | cIAP1/Actin in PBMC, median (range) (cIAP-1; 900 mg, 3h, N=4): 3 (3-49) % from baseline | cIAP1/Actin in PBMC, mean (SD) (cIAP-1; 900 mg, 6h, N=4): 14% (13) % from baseline | cIAP1/Actin in PBMC, median (range) (cIAP-1; 900 mg, 6h, N=4): 11 (1-32) % from baseline | cIAP1/Actin in PBMC, mean (SD) (cIAP-1; 900 mg, 12h, N=2): 9% (2) % from baseline | cIAP1/Actin in PBMC, median (range) (cIAP-1; 900 mg, 12h, N=2): 9 (7-10) % from baseline | cIAP1/Actin in PBMC, mean (SD) (cIAP-1; 900 mg, 24h, N=4): 11% (18) % from baseline | cIAP1/Actin in PBMC, median (range) (cIAP-1; 900 mg, 24h, N=4): 3 (0-38) % from baseline | cIAP1/Actin in PBMC, mean (SD) (cIAP-1; 900 mg, 99h, N=4): 7% (6) % from baseline | cIAP1/Actin in PBMC, median (range) (cIAP-1; 900 mg, 99h, N=4): 8 (0-14) % from baseline | cIAP1 in PBMCs (Western blot) (cIAP-1; patients with detectable cIAP1, doses above 80 mg): decreased; also recorded: rapid and persistent cIAP1 degradation | No observable adverse event level (NOAEL) [1]: 1 mg/kg | Oral bioavailability [2]: good | Apoptosis (xenograft tumors): apoptosis in xenograft tumors | Effect on irradiation or chemotherapeutic agents [3]: enhance the antitumoral effects
